The results in this text go back to ChEMBL document CHEMBL1127863, “New nonpeptide angiostensin II receptor antagonists. Synthesis, biological properties and structure-activity relationships of 3-substituted 2,6-dialkyl-4-(biphenyll)methylaminopyridine derivatives” (Bioorg Med Chem Lett, 1994).

The test system of one assay is Rattus norvegicus. Kind of assay: Effective dose following intravenous administration to conscious rats for inhibition of AII-induced pressor response. In kind it is functional.
For assay [1], the target named is Angiotensin II receptor (Cavia porcellus). Kind of assay: Inhibition of [125I]AII binding to guinea pig adrenal membrane.

The structures appear in SMILES notation.

The term ED50 denotes the dose at which the effect has come halfway, by size or by number of responders. A high value points to weaker potency. As to `CCc1cc(OCc2ccc(-c3ccccc3-c3nn[nH]n3)cc2)c2ccccc2n1`, the ED50 in the assay with Rattus norvegicus stood at 1 mg/kg. One may read the IC50 as the midpoint of a concentration-inhibition curve. A higher IC50 goes with lower potency. The compound `COC(=O)c1c(NCc2ccc(-c3ccccc3-c3nn[nH]n3)cc2)cc(C)nc1C` returned an IC50 in assay [1] of 8.03 nM.

`CCc1cc(OCc2ccc(-c3ccccc3-c3nn[nH]n3)cc2)c(I)c(CC)n1`: the half-inhibitory concentration (IC50) in assay [1] is recorded as 14 nM. Besides, in the assay on Rattus norvegicus, the 50% effect level (ED50) was put at a dose of 0.44 mg/kg.

In turn, `CCc1cc(NCc2ccc(-c3ccccc3-c3nn[nH]n3)cc2)c(-c2ccc(C(F)(F)F)cc2)c(CC)n1` gave an IC50 in assay [1] of 26.4 nM.

As to `CCc1cc(NCc2ccc(-c3ccccc3-c3nn[nH]n3)cc2)c(Cl)c(CC)n1`, the IC50 in assay [1] was determined as 7.58 nM. The ED50 in the assay on Rattus norvegicus came to 0.06 mg/kg. For `CCc1cc(NCc2ccc(-c3ccccc3-c3nn[nH]n3)cc2)c(Br)c(CC)n1`, the IC50 in assay [1] is recorded as 3.83 nM. Also, the ED50 in the assay on Rattus norvegicus stood at 0.09 mg/kg.

The compound `CCc1cc(NCc2ccc(-c3ccccc3-c3nn[nH]n3)cc2)c(C(=O)OC)c(CC)n1` returned an IC50 in assay [1] of 6.21 nM. On the same count and under the same terms, as for `CCc1cc(NCc2ccc(-c3ccccc3-c3nn[nH]n3)cc2)c(-c2ccc(C)cc2)c(CC)n1`, the figure is 24.9 nM. The compound `CCc1cc(NCc2ccc(-c3ccccc3-c3nn[nH]n3)cc2)c(I)c(CC)n1` showed an IC50 in assay [1] of 2.64 nM. For the same compound, in the assay with Rattus norvegicus, the ED50 turned out to be 0.13 mg/kg. In assay [1], `Cc1cc(NCc2ccc(-c3ccccc3-c3nn[nH]n3)cc2)c(I)c(C)n1` came in with an IC50 of 3.48 nM. Besides, the 50% effect level with Rattus norvegicus (ED50) was put at a dose of 0.05 mg/kg. The compound `Cc1cc(NCc2ccc(-c3ccccc3-c3nn[nH]n3)cc2)c(Cl)c(C)n1` showed an IC50 in assay [1] of 6.65 nM. This compound also gave an ED50 in the assay on Rattus norvegicus of 0.03 mg/kg. `CCc1cc(OCc2ccc(-c3ccccc3-c3nn[nH]n3)cc2)c2c(n1)CCCC2` displayed an ED50 with Rattus norvegicus of 0.39 mg/kg. In the assay on Rattus norvegicus, `CCCCc1nc(Cl)c(CO)n1Cc1ccc(-c2ccccc2-c2nnn[nH]2)cc1` [LOSARTAN] registered an ED50 of 0.65 mg/kg.
